Source: ChEMBL document CHEMBL1152294, “Identification of KD5170: a novel mercaptoketone-based histone deacetylase inhibitor” (Bioorg Med Chem Lett, 2008)
Values after ≈ are worked out from the molar mass of the structure shown. Active and inactive are the calls of the source. No cut-off for these calls is given here.

How the values were obtained:
Histone deacetylase = experiment: Inhibition of HDAC in human HeLa cells assessed as histone H3 hyperacetylation; format: cell-based
HCT-116 [1] = experiment: Cytotoxicity against human HCT116 cells; format: functional, cell-based
[2] = (§1) Cytotoxicity against human […] cells; format: functional, cell-based
PC-3 = experiment: Cytotoxicity against human PC3 cells; format: functional, cell-based
SK-OV-3 = experiment: Cytotoxicity against human SKOV3 cells; format: functional, cell-based
HL-60 = experiment: Cytotoxicity against human HL60 cells; format: functional, cell-based
HT-29 = experiment: Cytotoxicity against human HT-29 cells; format: functional, cell-based
MDA-MB-435 = experiment: Cytotoxicity against human MDA-MB-435 cells; format: functional, cell-based
NCI-H460 = experiment: Cytotoxicity against human H460 cells; format: functional, cell-based
HCT-116 [3] = experiment: Antitumor activity against human HCT116 cells xenografted in nude mouse assessed as tumor growth inhibition at 42 mg/kg, po QOD for 14 days relative to control; format: functional; set-up: scale not given: the % may be the effect or the level left
HCT-116 [4] = experiment: Antitumor activity against human HCT116 cells xenografted in nude mouse assessed as tumor growth inhibition at 84 mg/kg, po QOD for 14 days relative to control; format: functional; set-up: scale not given: the % may be the effect or the level left
786-0 = experiment: Cytotoxicity against human 786-0 cells; format: functional, cell-based
Mus musculus [5] = experiment: Induction of histone H3 hyperacetylation in human HCT116 cells xenografted in nude mouse at 42 mg/kg, iv by immunoblotting relative to control; format: functional, HCT-116
[6] = Cytotoxicity against human MJ cells; format: functional, cell-based
Mus musculus [7] = experiment: Induction of histone H3 hyperacetylation in human HCT116 cells xenografted in nude mouse at 42 mg/kg, po by immunoblotting relative to control; format: functional, HCT-116
Mus musculus [8] = experiment: Induction of histone H3 hyperacetylation in human HCT116 cells xenografted in nude mouse at 30 mg/kg, po after 8 hrs by immunoblotting relative to control; format: functional, organism-based; set-up: dose 30 mg/kg; conditions: HCT-116
Mus musculus [9] = experiment: Induction of histone H3 hyperacetylation in human HCT116 cells xenografted in nude mouse at 30 mg/kg, po after 4 hrs by immunoblotting relative to control; format: functional, organism-based; set-up: dose 30 mg/kg; conditions: HCT-116
Cytochrome P450 2C9 = Cytochrome P450 2C9 (Homo sapiens, UniProt P11712); experiment: Inhibition of CYP2C9; format: ADME
Cytochrome P450 2D6 = Cytochrome P450 2D6 (Homo sapiens, UniProt P10635); experiment: Inhibition of CYP2D6; format: ADME
Cytochrome P450 1A2 = target: T1, Cytochrome P450 1A2 (Homo sapiens, UniProt P05177); experiment: Inhibition of CYP1A2; format: ADME
T1 sequence (P05177 whole entry): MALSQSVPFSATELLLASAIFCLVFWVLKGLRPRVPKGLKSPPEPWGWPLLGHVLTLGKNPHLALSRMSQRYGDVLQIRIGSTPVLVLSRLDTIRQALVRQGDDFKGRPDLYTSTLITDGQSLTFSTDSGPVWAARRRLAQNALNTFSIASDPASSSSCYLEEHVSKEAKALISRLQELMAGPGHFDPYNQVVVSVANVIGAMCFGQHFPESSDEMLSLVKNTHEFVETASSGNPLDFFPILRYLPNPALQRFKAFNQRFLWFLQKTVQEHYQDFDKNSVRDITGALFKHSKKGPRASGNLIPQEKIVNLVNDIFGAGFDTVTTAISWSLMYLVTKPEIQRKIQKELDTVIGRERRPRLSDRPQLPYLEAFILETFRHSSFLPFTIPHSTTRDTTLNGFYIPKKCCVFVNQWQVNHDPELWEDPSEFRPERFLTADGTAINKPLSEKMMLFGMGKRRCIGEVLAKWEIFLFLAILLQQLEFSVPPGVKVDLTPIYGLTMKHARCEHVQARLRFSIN

[10] = target: Voltage-gated inwardly rectifying potassium channel KCNH2 (Homo sapiens, UniProt Q12809); experiment: Inhibition of human ERG by patch-clamp assay
[11] = Aqueous solubility of the compound; format: physicochemical; conditions: buffer
Cytochrome P450 2C19 = Cytochrome P450 2C19 (Homo sapiens, UniProt P33261); experiment: Inhibition of CYP2C19; format: ADME
U226 = experiment: as §1; format: functional, cell-based
Cytochrome P450 3A4 = Cytochrome P450 3A4 (Homo sapiens, UniProt P08684); experiment: Inhibition of CYP3A4; format: ADME
Mus musculus [12] = experiment: Induction of histone H3 hyperacetylation in human HCT116 cells xenografted in nude mouse at 50 mg/kg, po by immunoblotting relative to control; format: functional, HCT-116

Chain of Cytochrome P450 2C19 (P33261 whole entry): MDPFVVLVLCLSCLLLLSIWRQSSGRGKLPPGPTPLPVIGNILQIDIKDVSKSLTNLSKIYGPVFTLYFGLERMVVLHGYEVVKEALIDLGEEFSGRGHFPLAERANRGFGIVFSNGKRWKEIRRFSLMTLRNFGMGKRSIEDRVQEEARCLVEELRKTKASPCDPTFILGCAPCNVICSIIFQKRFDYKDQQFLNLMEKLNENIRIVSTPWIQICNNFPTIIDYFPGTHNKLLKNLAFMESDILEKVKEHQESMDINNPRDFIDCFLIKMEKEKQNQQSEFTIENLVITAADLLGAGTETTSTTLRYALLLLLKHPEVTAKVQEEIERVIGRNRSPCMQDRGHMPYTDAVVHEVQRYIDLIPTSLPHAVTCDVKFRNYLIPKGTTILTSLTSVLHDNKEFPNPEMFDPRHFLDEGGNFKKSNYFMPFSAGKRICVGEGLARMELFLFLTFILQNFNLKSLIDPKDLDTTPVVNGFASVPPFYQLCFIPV
Chain of Voltage-gated inwardly rectifying potassium channel KCNH2 (Q12809 whole entry): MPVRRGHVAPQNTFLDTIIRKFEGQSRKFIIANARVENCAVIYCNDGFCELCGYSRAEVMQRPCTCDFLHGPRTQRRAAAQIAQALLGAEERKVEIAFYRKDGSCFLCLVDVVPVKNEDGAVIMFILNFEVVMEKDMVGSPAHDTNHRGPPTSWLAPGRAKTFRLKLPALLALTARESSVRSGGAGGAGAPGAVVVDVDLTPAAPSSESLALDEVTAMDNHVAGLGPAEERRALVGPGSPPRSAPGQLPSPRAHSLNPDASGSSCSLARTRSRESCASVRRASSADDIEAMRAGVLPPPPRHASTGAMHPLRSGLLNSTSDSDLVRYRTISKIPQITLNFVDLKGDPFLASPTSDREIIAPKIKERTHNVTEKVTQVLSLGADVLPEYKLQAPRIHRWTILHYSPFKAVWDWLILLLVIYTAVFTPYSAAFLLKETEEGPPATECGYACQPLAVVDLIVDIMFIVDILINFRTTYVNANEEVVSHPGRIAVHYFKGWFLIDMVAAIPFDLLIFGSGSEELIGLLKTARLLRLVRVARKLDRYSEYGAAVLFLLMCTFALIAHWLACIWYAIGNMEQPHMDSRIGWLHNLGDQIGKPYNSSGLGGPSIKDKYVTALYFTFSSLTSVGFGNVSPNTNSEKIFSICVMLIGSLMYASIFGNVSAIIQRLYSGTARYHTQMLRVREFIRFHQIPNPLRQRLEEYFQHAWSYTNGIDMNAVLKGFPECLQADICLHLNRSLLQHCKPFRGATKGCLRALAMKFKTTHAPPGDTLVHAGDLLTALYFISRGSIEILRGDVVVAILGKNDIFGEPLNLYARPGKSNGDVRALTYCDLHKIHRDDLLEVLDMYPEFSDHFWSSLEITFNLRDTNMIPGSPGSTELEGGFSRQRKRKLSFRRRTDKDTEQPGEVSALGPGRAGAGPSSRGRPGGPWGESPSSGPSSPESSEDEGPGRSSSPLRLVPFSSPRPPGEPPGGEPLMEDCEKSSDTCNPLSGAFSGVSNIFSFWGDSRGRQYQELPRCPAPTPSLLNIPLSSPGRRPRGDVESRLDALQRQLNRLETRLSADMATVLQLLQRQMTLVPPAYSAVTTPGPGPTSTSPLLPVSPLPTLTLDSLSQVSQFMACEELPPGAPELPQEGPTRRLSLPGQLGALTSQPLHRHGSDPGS
Chain of Cytochrome P450 2D6 (P10635 whole entry): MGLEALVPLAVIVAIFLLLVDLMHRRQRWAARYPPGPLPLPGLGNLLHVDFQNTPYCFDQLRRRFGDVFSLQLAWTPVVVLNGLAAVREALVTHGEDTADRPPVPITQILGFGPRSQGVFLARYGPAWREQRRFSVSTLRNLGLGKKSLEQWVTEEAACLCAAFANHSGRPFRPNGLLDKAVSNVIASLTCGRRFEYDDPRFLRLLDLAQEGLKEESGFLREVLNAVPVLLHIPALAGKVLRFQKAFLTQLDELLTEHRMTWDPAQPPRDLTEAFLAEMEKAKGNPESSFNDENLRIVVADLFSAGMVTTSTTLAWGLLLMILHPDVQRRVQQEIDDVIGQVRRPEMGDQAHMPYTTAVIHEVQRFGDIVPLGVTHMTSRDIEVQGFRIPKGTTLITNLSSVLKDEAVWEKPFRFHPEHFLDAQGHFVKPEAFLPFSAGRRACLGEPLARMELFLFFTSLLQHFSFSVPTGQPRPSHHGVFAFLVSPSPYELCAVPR
Chain of Cytochrome P450 2C9 (P11712 whole entry): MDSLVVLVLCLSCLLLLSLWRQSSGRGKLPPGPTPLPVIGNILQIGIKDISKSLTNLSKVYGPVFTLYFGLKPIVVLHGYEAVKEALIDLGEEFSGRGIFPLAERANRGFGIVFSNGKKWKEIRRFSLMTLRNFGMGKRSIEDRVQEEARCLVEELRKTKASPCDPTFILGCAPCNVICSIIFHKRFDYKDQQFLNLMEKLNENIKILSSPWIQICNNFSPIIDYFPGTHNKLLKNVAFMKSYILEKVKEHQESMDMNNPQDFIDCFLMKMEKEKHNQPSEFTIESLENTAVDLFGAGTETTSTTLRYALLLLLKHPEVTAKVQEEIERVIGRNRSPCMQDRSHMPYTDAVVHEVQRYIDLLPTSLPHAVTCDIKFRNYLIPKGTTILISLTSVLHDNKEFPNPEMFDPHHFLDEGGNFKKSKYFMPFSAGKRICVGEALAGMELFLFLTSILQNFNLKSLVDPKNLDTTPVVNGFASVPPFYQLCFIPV
Chain of Cytochrome P450 3A4 (P08684 whole entry): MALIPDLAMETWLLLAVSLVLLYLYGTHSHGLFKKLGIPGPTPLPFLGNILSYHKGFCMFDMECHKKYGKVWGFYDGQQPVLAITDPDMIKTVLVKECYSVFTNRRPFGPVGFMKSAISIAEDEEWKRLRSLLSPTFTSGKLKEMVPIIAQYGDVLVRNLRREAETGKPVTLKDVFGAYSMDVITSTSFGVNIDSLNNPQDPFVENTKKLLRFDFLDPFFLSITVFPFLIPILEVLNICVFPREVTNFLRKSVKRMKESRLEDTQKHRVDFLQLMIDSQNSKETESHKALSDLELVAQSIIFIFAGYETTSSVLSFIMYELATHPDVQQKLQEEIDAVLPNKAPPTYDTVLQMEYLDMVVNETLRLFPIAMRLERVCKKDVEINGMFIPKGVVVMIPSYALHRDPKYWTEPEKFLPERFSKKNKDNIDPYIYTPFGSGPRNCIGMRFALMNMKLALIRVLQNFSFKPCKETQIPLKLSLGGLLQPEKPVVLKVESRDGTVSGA

Row | SMILES | EC50 (Histone deacetylase) [nM] | EC50 (HCT-116 [1]) [nM] | EC50 [2] [nM] | also measured
1 | CC(=O)SCC(=O)c1ccc(NS(=O)(=O)c2ccc(OCCCc3ccccn3)cc2)nc1 | 220 | – | – | –
2 | COc1cccc(S(=O)(=O)Nc2ccc(C(=O)CSC(C)=O)cn2)c1 | 190 | 4300 | – | –
3 | CC(=O)SCC(=O)c1ccc(NS(=O)(=O)c2ccc(OCCCN3CCOCC3)cc2)nc1 | 67 | 330 | 19000 | –
4 | CC(=O)SCC(=O)c1ccc(NS(=O)(=O)c2ccc(OCCCN3CCCC3)cc2)nc1 | 61 | 820 | 400 | –
5 | CC(=O)SCC(=O)c1ccc(NS(=O)(=O)c2ccc(OCCCN(C)C)cc2)nc1 [listing 1 of 2 here] | 45 | 140 | 180 | EC50 (PC-3): 740 nM; EC50 (SK-OV-3): 760 nM; EC50 (HL-60): 390 nM; EC50 (HT-29): 1000 nM; EC50 (MDA-MB-435): 180 nM; EC50 (NCI-H460): 230 nM; Activity (HCT-116 [3]): 44%; Activity (HCT-116 [4]): 25%; EC50 (786-0): 590 nM; fold change (FC) (Mus musculus [5]): 12; EC50 [6]: 170 nM; fold change (FC) (Mus musculus [7]): 9
6 | CC(=O)SCC(=O)c1ccc(NS(=O)(=O)c2ccc(OCc3ccccn3)cc2)nc1 | 220 | 420 | – | –
7 | CC(=O)SCC(=O)c1ccc(NS(=O)(=O)c2ccc(OCCc3ccccn3)cc2)nc1 | 190 | 750 | 9600 | –
8 | COCCCOc1ccc(S(=O)(=O)Nc2ccc(C(=O)CSC(C)=O)cn2)cc1 | 120 | 5300 | 29000 | –
9 | CC(=O)SCC(=O)c1ccc(NS(=O)(=O)c2ccc(OC3CCCN(C)C3)cc2)nc1 (stereo not given) | 110 | 3700 | 1200 | –
10 | CC(=O)SCC(=O)c1ccc(NS(=O)(=O)c2ccc(OCCCN(C)C)cc2)nc1 [listing 2 of 2 here] | – | – | – | Activity (Mus musculus [8]): Active; Activity (Mus musculus [9]): Active
11 | Br.CC(=O)SCC(=O)c1ccc(NS(=O)(=O)c2ccc(OCCCN(C)C)cc2)nc1 | – | – | – | EC50 (Cytochrome P450 2C9): > 50000 nM; EC50 (Cytochrome P450 2D6): > 50000 nM; EC50 (Cytochrome P450 1A2): > 50000 nM; EC50 [10]: > 30000 nM; solubility [11]: 10000 µg/mL; EC50 (Cytochrome P450 2C19): > 50000 nM
12 | CC(=O)SCC(=O)c1ccc(NS(=O)(=O)c2ccc(OC3CCN(C)CC3)cc2)nc1 | 44 | 180 | 300 | –
13 | CC(=O)SCC(=O)c1ccc(NS(=O)(=O)c2ccc(OCCCCN(C)C)cc2)nc1 | 29 | 280 | 120 | –
14 | CC(=O)SCC(=O)c1ccc(NS(=O)(=O)c2ccc(OCCCN3CCCCC3)cc2)nc1 | 53 | 1000 | 800 | –
15 | COc1ccc(S(=O)(=O)Nc2ccc(C(=O)CSC(C)=O)cn2)cc1 | 29 | 540 | – | –
16 | CC(=O)SCC(=O)c1ccc(NS(=O)(=O)c2ccc(OCCCO)cc2)nc1 | 110 | 8600 | – | –
17 | CC(=O)SCC(=O)c1ccc(NS(=O)(=O)c2ccc(OCCN(C)C)cc2)nc1 | 93 | 660 | – | Activity (U226): inactive
18 | CC(=O)SCC(=O)c1ccc(NS(=O)(=O)c2ccc3c(c2)COOC3)nc1 | 38 | 1200 | 2000 | EC50 (Cytochrome P450 2C9): 10000 nM; EC50 (Cytochrome P450 3A4): > 50000 nM; EC50 (Cytochrome P450 2D6): > 50000 nM; EC50 (Cytochrome P450 1A2): > 50000 nM; EC50 [10]: > 30000 nM; solubility [11]: 200 µg/mL (≈ 490 µM); EC50 (Cytochrome P450 2C19): > 50000 nM; fold change (FC) (Mus musculus [12]): 5
